Results: patent US8709457B2, “Hydroxylated amide skin moisturizer” (L'Oreal, priority 2006, dated 2014)

System: Stratum Corneum
Experiment: Dermometer, mechanical measurement of the plasticizing effect (elastic modulus of Stratum Corneum)
Details: for plasticizing effect on the stratum corneum (in words) / ranking of plasticizing effect among tested compounds: 3% aqueous solution, 30° C., 75% RH; for Relative variation in the elastic modulus of Stratum Corneum, 2H / Relative variation in the elastic modulus of Stratum Corneum, 20H: 30° C. and 75% relative humidity, products tested at 3% in water (controls in water), mean ± standard deviation, 10 samples; for Relative variation in the elastic modulus of Stratum Corneum, 2H: 2 h after application; for Relative variation in the elastic modulus of Stratum Corneum, 20H: 20 h after application
Protocol: A test was performed to evaluate the moisturizing potential of the compounds of the invention which are formulated in a 3% aqueous solution.
Dermometer, mechanical measurement of the plasticizing effect (described by J de Rigal, J-L. Leveque, International Journal of Cosmetic Science, 1982, 247-260).
The tests carried out were performed under the standard conditions on stratum corneum in a chamber at controlled temperature and humidity (T=30° C. and RH=75%). The elastic modulus measurements are performed on each control test specimen and then 2 hours and 20 hours after application of the treatment. The relative variation in the modulus makes it possible to assess the plasticizing effect of the active agent on the Stratum Corneum.
The mean and the standard deviation were calculated on 10 stratum corneum samples.

| SMILES | plasticizing effect on the stratum corneum (in words) | Relative variation in the elastic modulus of Stratum Corneum, 2H | Relative variation in the elastic modulus of Stratum Corneum, 20H | ranking of plasticizing effect among tested compounds |
| --- | --- | --- | --- | --- |
| C[Si](C)(C)CNC(=O)[C@H](O)[C@H](O)CO [Compound 5, (2R,3R)-2,3,4-trihydroxy-N-[(trimethylsilyl)methyl]butanamide] | significant plasticizing effect | −34 +/− 15% | −31 +/− 18% | – |
| CCN(CCO)C(=O)[C@H](O)[C@H](O)CO [Compound 15, (2R,3R)—N-ethyl-2,3,4-trihydroxy-N-(2-hydroxyethyl)butanamide] | significant plasticizing effect | -28 +/− 10% | −48 +/− 12% | most effective |
| NC(N)=O [Urea, reference compound] | – | −72 ± 9% | −83 ± 7% | – |
| O=C(NCCO)[C@H](O)[C@H](O)CO [Compound 9, (2R,3R)-2,3,4-trihydroxy-N-(2-hydroxyethyl)butanamide] | significant plasticizing effect | −26 +/− 14% | −27 +/− 16% | – |
| NC(=O)[C@H](O)[C@H](O)CO [Compound 3, (2R,3R)-2,3,4-Trihydroxybutanamide] | significant plasticizing effect | −32 +/− 18% | −34 +/− 15% | – |
| OCC(O)CO [Glycerol, reference compound] | – | −41 ± 12% | −51 ± 15% | – |
| O=C([C@H](O)[C@H](O)CO)N(CCO)CCO [Compound 14, (2R,3R)-2,3,4-trihydroxy-N,N-bis(2-hydroxyethyl)butanamide] | significant plasticizing effect | −23 +/− 18% | −49 +/− 14% | most effective |
